In patent US11332435B2, “Method for producing (3S)-3-(4-chloro-3-{[(2S,3R)-2-(4- chlorophenyl)-4,4,4-trifluoro-3-methylbutanoyl]amino}phenyl)-3-cyclo-propylpropanoic acid and the crystalline form thereof for use as a pharmaceutical ingredient” (Bayer Pharma Aktiengesellschaft, priority 2017, dated 2022):

How the values were obtained:
[1] = bioavailability of the solid form; type: in vivo; conditions: crystalline form of modification 1
[2] = stability in the micronization process; type: physicochemical
[3] = thermodynamic stability of the solid form; type: physicochemical; conditions: crystalline modification 1 compared with amorphous form of WO 2012/139888

Structure (SMILES): C[C@H]([C@H](C(=O)Nc1cc([C@@H](CC(=O)O)C2CC2)ccc1Cl)c1ccc(Cl)cc1)C(F)(F)F [Example I-1, (3S)-3-(4-chloro-3-{[(2S,3R)-2-(4-chlorophenyl)-4,4,4-trifluoro-3-methylbutanoyl]amino}phenyl)-3-cyclopropylpropanoic acid]
- bioavailability [1]: reproducible bioavailability
- stability in the micronization process (conversion, recrystallization) [2]: stable in the micronization process
- thermodynamic stability [3]: higher thermodynamic stability
